# Experimental data as given in patent publication US12492173B2, “Herbicidal substituted N-tetrazolyl aryl carboxamides” (Bayer Aktiengesellschaft, priority 2019, dated 2025).
# How the values were obtained:
# Format in all cases: in vivo
# [1] = test system: Matricaria inodora; experiment: Pre-emergence herbicidal action, MATIN; set-up: key to Herbicidal action against MATIN: % activity: 100 = plants have died, 0 = like control plants; settings: for herbicidal action MATIN / herbicidal activity MATIN: dosage 320 g/ha; for herbicidal activity MATIN: scored visually after 3 weeks vs untreated controls (100% = plants have died); for Herbicidal action against MATIN: comparative experiment
# Method in brief: (§1)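 Sown pots (sandy loam) sprayed pre-emergence → greenhouse → visual rating at 3 weeks; % activity vs untreated control, 100% = dead.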
# [2] = test system: Polygonum convolvulus; experiment: Pre-emergence herbicidal action, POLCO; settings: for herbicidal action POLCO / herbicidal activity POLCO: dosage 320 g/ha; for herbicidal activity POLCO: scored visually after 3 weeks vs untreated controls (100% = plants have died)
# Method in brief: as §1
# [3] = test system: Viola tricolor; experiment: Pre-emergence herbicidal action, VIOTR; set-up: key to Herbicidal action against VIOTR: % activity: 100 = plants have died, 0 = like control plants; settings: for herbicidal action VIOTR / herbicidal activity VIOTR: dosage 320 g/ha; for herbicidal activity VIOTR: scored visually after 3 weeks vs untreated controls (100% = plants have died)
# Method in brief: as §1
# [4] = test system: Echinochloa crus-galli; experiment: Post-emergence herbicidal action, ECHCG; set-up: key: % herbicidal action vs untreated; 100 = plants died, 0 = like control
# Method in brief: (§2)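 WP or EC formulations, diluted in water at 600 to 800 l/ha with 0.2% wetting agent, are sprayed onto green parts of one-leaf-stage plants grown in sandy loam. Visual assessment of percent damage relative to untreated controls follows after approximately 3 weeks in the greenhouse.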
# [5] = test system: Setaria viridis; experiment: Post-emergence herbicidal action, SETVI; set-up: key: % herbicidal action vs untreated; 100 = plants died, 0 = like control
# Method in brief: as §2
# [6] = test system: Avena fatua; experiment: Post-emergence herbicidal action, AVEFA; set-up: key: % herbicidal action vs untreated; 100 = plants died, 0 = like control
# Method in brief: as §2
# [7] = comparative experiment, 20 g of a.i./ha
# [8] = comparative experiment, post-emergence, 20 g of a.i./ha
SMILES,herbicidal action MATIN [1],herbicidal action VIOTR [3],herbicidal action ECHCG ([4]; Dosage 80 g/ha),herbicidal action SETVI ([5]; Dosage 80 g/ha),herbicidal action AVEFA ([6]; Dosage 80 g/ha),herbicidal activity MATIN [1],herbicidal activity VIOTR [3],other results
Cc1ccc(C(=O)Nc2nnnn2C)c(Cl)c1C[S+](C)[O-] (racemic) [Example 1-288],100%,90%,90,100,–,–,–,herbicidal action POLCO [2]: 80%
CCS(=O)(=O)Cc1c(C(F)(F)F)ccc(C(=O)Nc2nnnn2C)c1C [Example 1-88],100%,100%,90,90,80,–,–,–
Cc1c(C(=O)Nc2nnnn2C)ccc(C(F)F)c1C[S+](C)[O-] (stereo not drawn) [Example 1-108],90%,100%,80,80,–,–,–,herbicidal action POLCO [2]: 90%
COc1c(C(=O)Nc2nnnn2C)ccc(C(F)(F)F)c1C[S+](C)[O-] (stereo not drawn) [Example 1-135],90%,90%,90,100,–,–,–,–
CSc1c(C(=O)Nc2nnnn2C)ccc(C(F)F)c1C[S+](C)[O-] (stereo not drawn) [Example 1-171],–,–,100,100,–,100%,100%,herbicidal activity POLCO [2]: 100%
CSCc1c(C)ccc(C(=O)Nc2nnnn2C)c1Cl [Example 1-287],90%,90%,100,90,80,–,–,–
COCCSCc1c(C(F)(F)F)ccc(C(=O)Nc2nnnn2C)c1Cl [Example 1-305],–,–,–,–,–,100%,100%,"herbicidal action AVEFA ([6]; post-emergence, dosage 80 g/ha): 100%; herbicidal action ECHCG ([4]; post-emergence, dosage 80 g/ha): 100%; herbicidal action SETVI ([5]; post-emergence, dosage 80 g/ha): 100%"
Cn1nnnc1NC(=O)c1ccc(C(F)(F)F)c(CSCC(F)(F)F)c1Cl [Example 1-311],–,–,100,100,100,100%,100%,–
CSCc1c(I)ccc(C(=O)Nc2nnnn2C)c1Cl [Example 1-362],–,–,–,–,–,100%,100%,"Herbicidal action against MATIN ([1]; 20 g of a.i./ha): 70; herbicidal action AVEFA ([6]; post-emergence, dosage 80 g/ha): 100%; herbicidal action ECHCG ([4]; post-emergence, dosage 80 g/ha): 100%; herbicidal action SETVI ([5]; post-emergence, dosage 80 g/ha): 90%"
Cn1nnnc1NC(=O)c1ccc(I)c(CS(C)(=O)=O)c1Cl [Example 1-364],–,–,100,100,–,100%,100%,"Herbicidal action against POLCO [2, 7]: 90; herbicidal activity POLCO [2]: 100%"
CSCc1c(Cl)ccc(C(=O)Nc2nnnn2C)c1Cl [Example 1-559],90%,100%,–,–,–,–,–,"herbicidal action AVEFA ([6]; post-emergence, dosage 80 g/ha): 100%; herbicidal action ECHCG ([4]; post-emergence, dosage 80 g/ha): 100%; herbicidal action SETVI ([5]; post-emergence, dosage 80 g/ha): 100%"
COc1c(C(=O)Nc2nnnn2C)ccc(Cl)c1CSC [Example 1-570],100%,80%,–,–,–,–,–,"herbicidal action POLCO [2]: 80%; Herbicidal action against VIOTR [3, 7]: 70; Herbicidal action against ECHCG ([4]; post-emergence, dosage 80 g/ha): 100; Herbicidal action against SETVI ([5]; post-emergence, dosage 80 g/ha): 80"
CCn1nnnc1NC(=O)c1ccc(C(F)(F)F)c(CS(=O)(=O)CC)c1C [Example 2-88],100%,100%,90,90,90,–,–,–
CCn1nnnc1NC(=O)c1ccc(C(F)F)c(C[S+](C)[O-])c1C (stereo not drawn) [Example 2-108],100%,100%,100,90,–,–,–,–
CCn1nnnc1NC(=O)c1ccc(C(F)F)c(CSC)c1SC [Example 2-170],–,–,100,90,–,100%,100%,herbicidal activity POLCO [2]: 100%
CCn1nnnc1NC(=O)c1ccc(C(F)F)c(C[S+](C)[O-])c1SC (stereo not drawn) [Example 2-171],–,–,90,90,–,100%,100%,herbicidal activity POLCO [2]: 90%
CCn1nnnc1NC(=O)c1ccc(S(C)(=O)=O)c(CS(C)(=O)=O)c1Cl [Example 2-280],90%,90%,–,–,–,–,–,"Herbicidal action against AVEFA ([6]; post-emergence, dosage 80 g/ha): 90; Herbicidal action against ECHCG ([4]; post-emergence, dosage 80 g/ha): 90; Herbicidal action against SETVI ([5]; post-emergence, dosage 80 g/ha): 80"

SMILES,herbicidal action MATIN [1],herbicidal action VIOTR [3],herbicidal action ECHCG ([4]; Dosage 80 g/ha),herbicidal action SETVI ([5]; Dosage 80 g/ha),herbicidal action AVEFA ([6]; Dosage 80 g/ha),herbicidal activity MATIN [1],herbicidal activity VIOTR [3],other results
CCn1nnnc1NC(=O)c1ccc(C(F)(F)F)c(CS(=O)(=O)CC)c1Cl [Example 2-301],100%,100%,90,90,90,–,–,–
CCn1nnnc1NC(=O)c1ccc(I)c(C[S+](C)[O-])c1Cl (stereo not drawn) [Example 2-363],–,–,100,90,90,100%,100%,–
CCn1nnnc1NC(=O)c1ccc(Cl)c(CSC)c1Cl [Example 2-559],90%,100%,100,100,100,–,–,–
CCCn1nnnc1NC(=O)c1ccc(S(C)(=O)=O)c(CSC)c1C [Example 3-37],90%,100%,100,90,80,–,–,–
CCCn1nnnc1NC(=O)c1ccc(S(C)(=O)=O)c(CS(C)(=O)=O)c1C [Example 3-39],100%,100%,90,90,80,–,–,–
CCCn1nnnc1NC(=O)c1ccc(C(F)(F)F)c(CSC)c1SC [Example 3-161],100%,100%,90,100,90,–,–,–
CCCn1nnnc1NC(=O)c1ccc(C(F)F)c(CSC)c1SC [Example 3-170],–,–,90,–,80,100%,100%,herbicidal activity POLCO [2]: 90%
CCCn1nnnc1NC(=O)c1ccc(C(F)F)c(C[S+](C)[O-])c1SC (stereo not drawn) [Example 3-171],–,–,90,–,–,100%,100%,herbicidal activity POLCO [2]: 90%
CCCn1nnnc1NC(=O)c1ccc(C(F)F)c(CS(C)(=O)=O)c1SC [Example 3-172],–,–,90,–,–,100%,100%,herbicidal activity POLCO [2]: 100%
CCCn1nnnc1NC(=O)c1ccc(C(F)(F)F)c(CS(=O)(=O)CC)c1Cl [Example 3-301],100%,100%,90,90,90,–,–,–
C=CCSCc1c(C(F)(F)F)ccc(C(=O)Nc2nnnn2CCC)c1Cl [Example 3-308],–,–,100,100,100,100%,100%,–
CCCn1nnnc1NC(=O)c1ccc(C(F)(F)F)c(CSCC(F)(F)F)c1Cl [Example 3-311],100%,100%,100,80,100,–,–,–
CCCn1nnnc1NC(=O)c1ccc(C(F)(F)F)c(CSCC2CC2)c1Cl [Example 3-314],–,–,–,–,–,100%,100%,"herbicidal action AVEFA ([6]; post-emergence, dosage 80 g/ha): 100%; herbicidal action ECHCG ([4]; post-emergence, dosage 80 g/ha): 100%; herbicidal action SETVI ([5]; post-emergence, dosage 80 g/ha): 100%"
CCCn1nnnc1NC(=O)c1ccc(I)c(C[S+](C)[O-])c1Cl (stereo not drawn) [Example 3-363],100%,100%,100,100,80,–,–,–
CCCn1nnnc1NC(=O)c1ccc(C(F)(F)F)c(CS(C)(=O)=O)c1Br [Example 3-382],100%,90%,90,100,–,–,–,–
"CCS(=O)(=O)c1c(C(F)(F)F)ccc(C(=O)Nc2nnnn2C)c1Br [Example V-13, 2-bromo-3-(ethylsulfonyl)-N-(1-methyl-1-1H-tetrazol-5-yl)-4-(trifluoromethyl)benzamide, reference compound]",–,–,–,–,–,–,–,"Herbicidal action against MATIN ([1]; 80 g of a.i./ha): 0; Herbicidal action against AVEFA [6, 8]: 0; Herbicidal action against ECHCG [4, 8]: 0; Herbicidal action against SETVI [5, 8]: 0"
